One block for each compound: values may come before it.
Assays:
[1] = biological target: T1, KCNQ2 potassium channel (CHO-KCNQ2 cells) (Homo sapiens, UniProt O43526); assay: Potassium ion channel opener activity test (FDSS/μCELL detection, FluxOR thallium flux); format: cell-based; conditions: for Maximum agonist rate (%): highest test concentration 100 μM
T1 construct: expressed in transfected cells; host or cells: CHO cells stably expressing KCNQ2, kept under G418 selection
Description: Potassium Ion Channel Opener Activity Test (FDSS/μCELL Detection)
1.1 Experimental procedure
Cell preparation: CHO-KCNQ2 cells were cultured in a 175 cm^2 culture flask, and when the cell density grew to 60-80%, the culture medium was removed, washed with 7 mL PBS (Phosphate Buffered Saline) once, then 3 mL 0.25% Trypsin was added to digest. After the digestion was completed, 7 mL culture medium (90% DMEM/F12+10% FBS±500 μg/mL G418) was added to neutralize, centrifugated for 3 minutes at 800 rpm. The supernatant was aspirated, then 5 mL culture medium was added to resuspend, and then the cells were counted.
Cell plating: according to the results of cell counting, the density was adjusted to 3×10^4 cells/well. After standing at room temperature for 30 minutes, the plate was placed in a 37° C. CO2 incubator and incubated overnight for 16-18 hours. The cell density reached about 80%.
Fluorescent dye incubation: the cell culture medium was discarded, 80 μL/well loading buffer was added, and incubated in the dark at room temperature for 60 minutes. Compound incubation: the loading buffer was discarded, 80 μL/well prepared compound solution was added, and incubated in the dark at room temperature for 20 minutes.
Fluorescence data collection: FDSS/μCELL instrument was used for real-time fluorescence signal recording with excitation wavelength at 480 nm and emission wavelength at 540 nm, recorded 1 time per second, and 20 μL/well stimulation buffer was started to add after recording for 10 seconds for baseline, and then continued to record until the end of 180 seconds.
The above buffer come from a commercially available kit named FluxOR potassium ion channel assay.
20 mM DMSO compound mother liquor was prepared, 10 μL of 20 mM compound mother liquor was took into 20 μL DMSO solution, serially diluted 3 times to 8 intermediate concentrations; then the intermediate concentrations of the compound was took out and added to the test buffer, diluted for 200 times to get the final concentration to be tested, 80 μL was took out and added to the test plate.
The highest test concentration was 100 μM, followed by […], 33.33, 11.11, 3.70, 1.23, 0.41, 0.137, 0.045 μM, total 8 concentrations. Each concentration set 3 duplicate wells.
This concentration of DMSO has no effect on the KCNQ2 potassium channel.
Experimental data was analyzed by Excel 2007 and GraphPad Prism 5.0 software, and the ratio of 180 seconds was calculated to calculate the agonism effect. The agonism effect of the compound was calculated by the following formula: […]
Reagent: FluxORTM Detection Kit (Invitrogen, Cat #F0017)
The experimental data in the report must meet the following criteria: Z′ Factor>0.5
2. Results: See Table 1, wherein the smaller the EC50 is, the higher the activity of the corresponding compound is.

[2] = Pharmacokinetics of rats, single intravenous and oral administration, plasma; format: in vivo; conditions: male SD rats; for F: gavage 5 mg/kg vs intravenous 0.3 mg/kg; for AUC(0-inf) / AUC(0-t) / Cmax / Tmax / half-life: rat, plasma
Description: Study on Pharmacokinetics of Rats
1) Research purpose: To obtain the pharmacokinetic characteristics of the compounds to be tested in male SD rats.
(§1) Pharmacokinetic study: 6 healthy male SD rats (SPF grade) were divided into 2 groups and 3 rats/group. After fasting overnight (only oral administration group), compound A was administrated 0.3 mg/kg intravenously and 5 mg/kg orally, blood was collected by jugular vein puncture at time points 0.083 (IV only), 0.25, 0.5, 1, 2, 4, 6 (PO only), 8 and 24 hours, and at least 0.3 mL of whole blood was collected to EDTA-K2 anticoagulant tube. Plasma was centrifuged (6000 rmp, 8 minutes, 4° C.) within half an hour and frozen at −20° C. for later use.
(§2) Experimental results: According to the blood drug concentration data obtained, the non-compartmental model of WinNonlin® 7.0 software (Pharsight, USA) was used to calculate the pharmacokinetic parameters after administration.

[3] = Brain-blood ratio study in mice after single oral administration; format: in vivo; conditions: mouse, brain and plasma, male ICR mice, single oral 10 mg/kg, read-out: Cerebral blood ratio; for Kp at 2 h: time point 2 h; for Kp at 4 h: time point 4 h
Description: Brain-blood ratio study: 6 healthy male ICR mice (body weight range 18-22 g) were taken and divided into 2 groups and 3 mice/group. After fasting overnight, the compound to be tested (10 mg/kg) was administrated orally respectively. Blood was taken through cardiac puncture at time points 2 and 4 hours, at least 0.5 mL of whole blood was collected to EDTA-K2 anticoagulant tube. Plasma was centrifuged (6000 rpm, 8 minutes, 4° C.) within half an hour and frozen at −20° C. for later use. At the same time, the brain tissue was collected, rinsed with normal saline, then sucked to dryness with absorbent paper, weighed, and frozen at −20° C. for later use.
The cerebral blood ratio is very important to nerve drugs, and it can be seen from Table 3 that the compounds of the present invention have excellent cerebral blood ratio, which will bring better drug efficacy and excellent safety. By comparing the cerebral blood ratios of compound A, compound 1, compound B and compound J, it can be seen that after the tert-butyl of compound A or compound B has been changed into […]

[4] = Pharmacokinetics of mice, single intravenous and oral administration, plasma; format: in vivo; conditions: male ICR mice; for F: gavage 10 mg/kg vs intravenous; for AUC(0-inf) / AUC(0-t) / Cmax / Tmax / half-life: mouse, plasma
Description: Study on Pharmacokinetics of Mice
1) Research purposes: In order to obtain the pharmacokinetic characteristics and blood-brain barrier of the tested compound in male ICR mice
as §1, with “Six” for “Pharmacokinetic study: 6”, “ICR mice (body weight range 18-22 g)” for “SD rats (SPF grade)”, “were taken and” for “were”, “mice/group.” for “rats/group.”, “[…],” for “compound A was administrated 0.3 mg/kg intravenously and 5 mg/kg orally,”, “rpm,” for “rmp,”
as §2

[5] = intravenous 1 mg/kg (footnote *)

T1 sequence (O43526 whole entry): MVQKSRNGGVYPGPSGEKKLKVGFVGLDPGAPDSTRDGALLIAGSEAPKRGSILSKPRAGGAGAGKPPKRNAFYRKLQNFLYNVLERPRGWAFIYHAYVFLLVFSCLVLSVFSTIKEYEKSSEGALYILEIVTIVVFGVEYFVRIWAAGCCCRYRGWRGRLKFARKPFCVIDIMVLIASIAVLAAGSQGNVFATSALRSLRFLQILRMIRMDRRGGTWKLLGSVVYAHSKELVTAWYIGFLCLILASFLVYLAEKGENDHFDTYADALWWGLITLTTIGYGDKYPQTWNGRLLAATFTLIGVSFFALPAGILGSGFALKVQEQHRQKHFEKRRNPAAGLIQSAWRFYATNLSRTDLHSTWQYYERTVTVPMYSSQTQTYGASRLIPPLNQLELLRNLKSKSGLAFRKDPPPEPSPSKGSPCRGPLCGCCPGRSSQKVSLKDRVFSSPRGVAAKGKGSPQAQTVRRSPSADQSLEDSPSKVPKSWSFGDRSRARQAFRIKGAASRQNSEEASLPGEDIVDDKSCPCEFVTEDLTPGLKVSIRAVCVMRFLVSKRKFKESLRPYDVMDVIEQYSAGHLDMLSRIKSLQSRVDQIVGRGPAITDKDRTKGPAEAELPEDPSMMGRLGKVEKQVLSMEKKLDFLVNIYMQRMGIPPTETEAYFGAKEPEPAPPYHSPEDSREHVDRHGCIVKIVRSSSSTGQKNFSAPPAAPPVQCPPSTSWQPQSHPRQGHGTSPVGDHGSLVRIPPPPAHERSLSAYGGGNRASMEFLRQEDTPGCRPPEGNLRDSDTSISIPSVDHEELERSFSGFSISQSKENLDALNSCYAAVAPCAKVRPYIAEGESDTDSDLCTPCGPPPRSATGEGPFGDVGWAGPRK

SMILES: Cc1cc2c(c(C)c1NC(=O)CC1(C)CC1)CCN(c1ccc(Cl)cc1)C2 [Compound W]
EC50 [1]: 180 nM
Maximum agonist rate (%) [1]: 33.2%

SMILES: Cc1cc2c(c(C)c1NC(=O)CC(C)(C)C)CCN(c1ccc(F)cc1)C2 [Compound A]
F [2]: 38.93%
AUC(0-inf) ([2]; po, gavage 5 mg/kg): 1280 ng·h/mL
AUC(0-t) ([2]; po, gavage 5 mg/kg): 909 ng·h/mL
Cmax ([2]; po, gavage 5 mg/kg): 154 ng/mL
Tmax ([2]; po, gavage 5 mg/kg): 90 min
half-life ([2]; po, gavage 5 mg/kg): 184 min
AUC(0-inf) ([2]; intravenous 0.3 mg/kg): 144 ng·h/mL
AUC(0-t) ([2]; intravenous 0.3 mg/kg): 140 ng·h/mL
Cmax ([2]; intravenous 0.3 mg/kg): 332 ng/mL
Tmax ([2]; intravenous 0.3 mg/kg): 4.8 min
half-life ([2]; intravenous 0.3 mg/kg): 59.4 min
Kp at 2 h [3]: 2.3
Kp at 4 h [3]: 2.8
EC50 [1]: 440 nM
Maximum agonist rate (%) [1]: 37.97%
F [4]: 33.79%
AUC(0-inf) ([4]; po, gavage 10 mg/kg): 793 ng·h/mL
AUC(0-t) ([4]; po, gavage 10 mg/kg): 792 ng·h/mL
Cmax ([4]; po, gavage 10 mg/kg): 142 ng/mL
Tmax ([4]; po, gavage 10 mg/kg): 40.2 min
half-life ([4]; po, gavage 10 mg/kg): 157 min
AUC(0-inf) ([4]; intravenous 0.5 mg/kg): 118 ng·h/mL
AUC(0-t) ([4]; intravenous 0.5 mg/kg): 117 ng·h/mL
Cmax ([4]; intravenous 0.5 mg/kg): 270 ng/mL
Tmax ([4]; intravenous 0.5 mg/kg): 4.8 min
half-life ([4]; intravenous 0.5 mg/kg): 59.4 min

SMILES: Cc1cc2c(c(C)c1NC(=O)CC1(C)CC1)CCN(c1ccc(I)cc1)C2 [Compound X]
EC50 [1]: 72 nM
Maximum agonist rate (%) [1]: 28.94%

SMILES: Cc1cc2c(c(C)c1NC(=O)CC1(C)CC1)CCN(c1ccc(Br)cc1)C2 [Compound Y]
EC50 [1]: 200 nM
Maximum agonist rate (%) [1]: 37.96%

SMILES: Cc1ccc(N2CCc3c(cc(C)c(NC(=O)CC(C)(C)C)c3C)C2)cc1 [Compound U]
EC50 [1]: 330 nM
Maximum agonist rate (%) [1]: 52.3%

SMILES: Cc1cc2c(c(C)c1NC(=O)CC(C)(C)C)CCN(c1ccc(F)cc1F)C2 [Compound B]
F [2]: 43.63%
AUC(0-inf) ([2]; po, gavage 5 mg/kg): 1080 ng·h/mL
AUC(0-t) ([2]; po, gavage 5 mg/kg): 1070 ng·h/mL
Cmax ([2]; po, gavage 5 mg/kg): 128 ng/mL
Tmax ([2]; po, gavage 5 mg/kg): 240 min
half-life ([2]; po, gavage 5 mg/kg): 208 min
AUC(0-inf) ([2]; intravenous 0.3 mg/kg): 149 ng·h/mL
AUC(0-t) ([2]; intravenous 0.3 mg/kg): 147 ng·h/mL
Cmax ([2]; intravenous 0.3 mg/kg): 352 ng/mL
Tmax ([2]; intravenous 0.3 mg/kg): 4.8 min
half-life ([2]; intravenous 0.3 mg/kg): 120 min
Kp at 2 h [3]: 0.99
Kp at 4 h [3]: 0.72
EC50 [1]: 160 nM
Maximum agonist rate (%) [1]: 37.5%
F [4]: 88.56%
AUC(0-inf) ([4]; po, gavage 10 mg/kg): 1430 ng·h/mL
AUC(0-t) ([4]; po, gavage 10 mg/kg): 1400 ng·h/mL
Cmax ([4]; po, gavage 10 mg/kg): 776 ng/mL
Tmax ([4]; po, gavage 10 mg/kg): 15 min
half-life ([4]; po, gavage 10 mg/kg): 158 min
AUC(0-inf) [4, 5]: 161 ng·h/mL
AUC(0-t) [4, 5]: 158 ng·h/mL
Cmax [4, 5]: 405 ng/mL
Tmax [4, 5]: 4.8 min
half-life [4, 5]: 56.4 min

The remaining lines, values ahead:

EC50 [1]: 730 nM
Maximum agonist rate (%) [1]: 35.84%
SMILES: Cc1cc2c(c(C)c1NC(=O)CC1(C)CC1)CCN(c1ccccc1F)C2 [Compound A1]

EC50 [1]: 400 nM
Maximum agonist rate (%) [1]: 35.92%
SMILES: Cc1cc2c(c(C)c1NC(=O)CCC1CC1)CCN(c1ccc(F)cc1)C2 [Compound A7]

EC50 [1]: 270 nM
Maximum agonist rate (%) [1]: 48.11%
SMILES: Cc1cc2c(c(C)c1NC(=O)CC1(C)CC1)CCN(c1cccc(C(F)(F)F)c1)C2 [Compound A4]

EC50 [1]: 49 nM
Maximum agonist rate (%) [1]: 34.41%
SMILES: Cc1cc2c(c(C)c1NC(=O)CC1CC(F)(F)C1)CCN(c1ccc(F)cc1)C2 [Compound A5]

— patent publication US20230077155A1, “TETRAHYDROISOQUINOLINE COMPOUND AS POTASSIUM CHANNEL MODULATOR AND PREPARATION AND APPLICATION THEREOF” (Shanghai Zhimeng Biopharma, Inc., priority 2020, published 2023)
